Experimental findings from patent US10639345B2, “Compositions for preserving photoreceptor cells, retinal pigment epithelial cells, or visual function” (Massachusetts Eye and Ear Infirmary, priority 2010, dated 2020) are described below.

Where a SMILES comes first, the peptide text is derived from it. The star is where a group is joined. Cbz = O=C(OCc1ccccc1)*; CH2F = FC*

In assay [1] the test system is photoreceptors. Kind of assay: TEM quantification of photoreceptor death after retinal detachment in RIP-3−/− mice. The assay is classed as in vivo. As to conditions: day three after retinal detachment. Here is the method: (§1) TEM was performed as previously described (Hisatomi T et al. (2008). J. CLIN. INVEST. 118:2025-2038). […] Over 200 photoreceptors each eye were photographed and subjected to quantification of cell death modes in a masked fashion. Photoreceptors showing cellular shrinkage and nuclear condensation were defined as apoptotic cells, while photoreceptors associated with cellular and organelle swelling and discontinuities in nuclear and plasma membrane were defined as necrotic cells. The presence of electron-dense granular materials were reported to occur subsequent to both apoptotic and necrotic cell death and cells with these findings were labeled simply as end-stage cell death/unclassified (Hisatomi T et al. (2003) AM. J. PATHOL. 162:1869-1879; Erickson P A et al. (1983) INVEST. OPHTHALMOL. VIS. SCI. 24:927-942).
(§2) The morphology of the RIP-3−/− retina after retinal detachment was also assessed by TEM. […] RIP-3 deficiency inhibits the switch to necrotic cell death by Z-VAD treatment and prevents photoreceptor death after retinal detachment. Scale bar, 5 μm.

The test system of assay [2] is photoreceptors. Kind of assay: TEM quantification of photoreceptor death after retinal detachment in WT mice. As to conditions: day three after retinal detachment. The assay is classed as in vivo. On the procedure:
as §1, §2

For assay [3], the system named is photoreceptors. Nature of the assay: Normalized ONL thickness ratio after retinal detachment in RIP-3−/− mice.
Procedure: TUNEL assays were used to measure the amount of apoptotic and necrotic cell death (Grasl-Kraupp et al., HEPTALOGY (1995) 21(5):1465-8). TUNEL and quantification of TUNEL positive cells in ONL were performed as described above by using the ApopTag Fluorescein In Situ Apoptosis Detection Kit (Millipore, Billerica, Mass.). The ratio of the ONL thickness to the thickness of neuroretina in the central area of the detached retina was determined by National Institutes of Health ImageJ software and standardized by that in the attached retina. The data are expressed as normalized ONL thickness ratio [(ONL/neuroretina thickness in detached retina)/(ONL/neuroretina thickness in attached retina)].
Assay [4] deals with CD11b-positive macrophage/microglia. Nature of the assay: CD11b immunohistochemistry after retinal detachment. The assay is classed as in vivo. As to conditions: day three after retinal detachment. Here is the method:
Immunohistochemistry (IHC) was performed as previously reported (Murakami Y et al. (2008) AM J PATHOL 173:1326-1338). Rat anti-CD11b antibody (1:50; BD Biosciences, San Diego, Calif.) was used as the primary antibody. The specimens were imaged by confocal microscopy using the Leica HCX APOL40× lens.
Since the release of intracellular content in necrosis results in secondary inflammation, changes in the inflammatory response after retinal detachment were investigated by immunohistochemistry and immunofluorescence with an antibody against CD11b. FIG. 11A-B show IHC for CD11b (FIG. 11A) and quantification of CD11b-positive cells in control retina without retinal detachment and in retina treated with vehicle, Z-VAD or Z-VAD+Nec-1 (n=6 each) (FIG. 11B) at three days after retinal detachment. (*, P<0.05; **, P<0.01; NS, not significant; Scale bar, 50 μm).

The test system of assay [5] is photoreceptors. Nature of the assay: In vivo propidium iodide staining of photoreceptors after retinal detachment, wild-type retina. As to conditions: three days after retinal detachment. On the set-up: species or system mouse. Here is the method:
In vivo propidium iodide (PI) staining was performed by injecting 5 μl of PI (50 μg/ml) into the subretinal space three days after retinal detachment. After two hours, the eyes were enucleated and 10 μm thick cryosections were cut, air-dried, and fixed in 100% ethanol. DAPI was used to counterstain the nuclei. The center of the detached retina was photographed by fluorescence microscope, and the number of PI-positive cells in ONL was analyzed by ImageJ software.
(*, P<0.05; **, P<0.01; scale bar, 100 μm.)

Another assay deals with primary RPE cells. Kind of assay: Viability of primary RPE cells treated with poly I:C (Cell Counting Kit-8). The assay is classed as cell-based, mice. As to conditions: WT primary RPE cells, 5 μg/ml poly I:C for 48 hours. Here is the method: As described in Example 11, primary RPE cells were extracted from the retina of mice and cultured in the presence of 5 μg/ml of poly I:C for 48 hours or with PBS. Cell viability was measured using Cell Counting Kit-8 (Dojindo Laboratories, Kumamoto, Japan). This assay is based on the cleavage of 2-(2-methoxy-4-nitrophenyl)-3-(4-nitrophenyl)-5-(2,4-disulfophenyl)-2H-tetrazolium, monosodium salt (WST-8) by the mitochondrial dehydrogenase enzyme to produce a formazan dye. After incubation with WST-8 for two hours at 37° C., absorbance was measured at 450 nm to determine cell viability.
For orientation: Tetrazolium assays rely on reduction of a dye to a coloured formazan, in cell work by metabolically active cells.

The subject of assay [6] is CD11b-positive macrophage/microglia. Nature of the assay: CD11b-positive cell infiltration after retinal detachment in RIP-3−/− eyes. The assay is classed as in vivo, RIP-3−/− mice. On the procedure: Immunofluorescence was performed as previously reported (Hisatomi et al. (2008) J CLIN INVEST 118:2025-2038. The enucleated eyes were frozen in OCT compound (Sakura Finetechnical Co., Tokyo, Japan). Five μm-thick sections were cut, air dried and fixed in cold acetone for 10 minutes. Rat anti-CD11b (1:50; BD Biosciences, San Diego, Calif.) was used as the primary antibody and incubated at 4° C. overnight. A nonimmune serum was used as a negative control. Alexa Fluor 594-conjugated goat anti-rat IgG (Invitrogen, Carlsbad, Calif.) was used as the secondary antibody and incubated at room temperature for one hour. The specimens were imaged by confocal microscopy using the Leica HCX APOL40× lens.
Since the release of intracellular content in necrosis results in secondary inflammation, changes in the inflammatory response after retinal detachment were investigated by immunohistochemistry and immunofluorescence with an antibody against CD11b. FIG. 11A-B show IHC for CD11b (FIG. 11A) and quantification of CD11b-positive cells in control retina without retinal detachment and in retina treated with vehicle, Z-VAD or Z-VAD+Nec-1 (n=6 each) (FIG. 11B) at three days after retinal detachment. […]
FIG. 11C-D show immunofluorescence for CD11b (FIG. 11C) and quantification of CD11b-positive macrophage/microglia (FIG. 11D) in WT and RIP-3−/− retina after retinal detachment.

Assay [7] has as its system photoreceptors. Kind of assay: Normalized ONL thickness ratio after experimental retinal detachment. The assay is classed as in vivo, rat. As to conditions: subretinal Z-VAD 300 μM and/or Nec-1 400 μM. Here is the method: Photoreceptor death was also assessed by TUNEL analysis at three days after retinal detachment in retina treated with either vehicle, Nec-1, Z-VAD or Nec-1+Z-VAD. […] Nine sections for each eye specimen were randomly selected, and the central area of detached retina and the mid-peripheral region of attached retina were photographed. The ONL thickness ratio was measured at ten points in each section by masked observers. […] (GCL: ganglion cell layer, INL: inner nuclear layer. *, P<0.05. Scale bar, 100 μm). […]
TNF-α protein contents in rat retina were determined using ELISA Kit for rat TNF-α (Invitrogen, Carlsbad, Calif.). Goat anti-mouse/rat TNF-α blocking antibody was purchased from R&D Systems (Minneapolis, Minn.). The rat eyes were subretinally injected with 1% of sodium hyaluronate containing 0.1 mg/ml of anti-TNF-α antibody or control antibody.

The subject of assay [8] is carbonyl adducts of proteins. Nature of the assay: Protein carbonyl ELISA (oxidative retinal damage) after retinal detachment. As to conditions: day three after retinal detachment, wild type. The assay is classed as in vivo. Here is the method: Recent studies reported that RIP kinases regulate downstream ROS production during programmed necrosis (Cho Y S et al. (2009) CELL 137:1112-1123; Zhang D W et al. (2009) SCIENCE 325:332-336; Kim et al. (2007) MOL CELL 26:675-687). ELISA for carbonyl adducts of proteins was used to examine oxidative retinal damage following retinal detachment. Specifically, the amounts of protein carbonyls were determined by using OxiSelect™ Protein Carbonyl ELISA Kit (Cell Biolabs, San Diego, Calif.).

Turning to `COC(=O)CC(NC(=O)C(C)NC(=O)C(NC(=O)OCc1ccccc1)C(C)C)C(=O)CF` (stereo not drawn) [Z-VAD, Benzyloxycarbonyl-Val-Ala-Asp(OMe)-fluoromethylketone] (Cbz-Val-Ala-Asp(OMe)-CH2F; configuration not given here), the “% apoptotic cells (TEM)” value in the assay with photoreceptors [1] worked out at 4.8±1.3%; in the assay with photoreceptors [2], 13.3±1.5%. Also, the “% necrotic cells (TEM)” value in the assay with photoreceptors [1] is given as 6.4±1.3%; in the assay on photoreceptors [2], 22.1±1.0%. Moreover, the “% unclassified (TEM)” value is on record as 0.9±0.4% with photoreceptors [1] and 1.0±0.6% in the assay on photoreceptors [2]. Also, the ONL thickness ratio result in the assay on photoreceptors [3] (day 3 and 5 after retinal detachment, RIP-3−/− retinas) is “augmented”. Besides, the “normalized ONL thickness ratio” value is on record as 0.841±0.042 with photoreceptors [3] (five days after retinal detachment, RIP-3−/− mice); 0.54±0.10 with photoreceptors [7] (five days after retinal detachment); 0.72±0.08 in the assay on photoreceptors [7] (three days after retinal detachment). Also, in [4], the “infiltration of CD11b-positive cells in the retina” value is listed as 514.7±54.5 cells/mm^2. Further, the “number of PI-positive photoreceptors in the ONL” value with photoreceptors [5] turned out to be 817.4±104.2 cells/mm^2. The “viability of RPE cells” value in the assay on primary RPE cells is “did not protect WT RPE cells”. For the same compound, in assay [6], the “infiltration of CD11-b positive cells in the retina and subretinal space” value is given as “even less infiltration”. Besides, the “carbonyl contents per mg protein” value in [8] is recorded as “significant increase of carbonyl contents”.
